Experimental data reported in PubChem BioAssay AID2060903 (Molecular Pharmacology Branch, DTP, NCI, 2025).

Tested on: 377384-186-R-J1-PDC complex spheroid viability
Test: Anticancer human tumor 377384-186-R-J1-PDC patient-derived pancreatic carcinoma cell line growth inhibition [RAS]
Details: for IC50: curve of first compound; for viability, T/C: stronger effect = lower value
Summary of the method: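 Agents were tested in combination matrices in half-log decrements from a top concentration at or near clinical Cmax (10 microM if undetermined). Targets were multi-cell spheroids of tumour lines plus HUVEC and MSC stromal cells.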
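Further: spheroids exposed to compounds for seven days before readout.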

CC1(C)CCC(Nc2ncc(C(F)(F)F)c(-c3c[nH]c4c(P(C)(C)=O)c(C#N)ccc34)n2)CN1 (centres undefined) + CCn1c(-c2cccnc2C(C)OC)c2c3cc(ccc31)N1CCOC(CC(NC(=O)C(C(C)C)N(C)C(=O)C3(F)CCN(C(=O)C#CC(C)(C)N(C)C)CC3)C(=O)N3CCCC(N3)C(=O)OCC(C)(C)C2)C1
IC50 (second compound 0.000949 µM): 6.49 nM | IC50 (second compound 0.003 µM): 6.94 nM | IC50 (second compound 0.00949 µM): 6.25 nM | IC50 (second compound 0.03 µM): 6.09 nM | IC50 (second compound 0.0949 µM): 4.39 nM | IC50 (second compound 0.3 µM): 4.25 nM | viability, T/C (second compound 0.000949 µM, first compound 0.000949 µM): 96% | viability, T/C (second compound 0.000949 µM, first compound 0.003 µM): 75.9% | viability, T/C (second compound 0.000949 µM, first compound 0.00949 µM): 36.1% | viability, T/C (second compound 0.000949 µM, first compound 0.03 µM): 30.8% | viability, T/C (second compound 0.000949 µM, first compound 0.0949 µM): 22.1% | viability, T/C (second compound 0.000949 µM, first compound 0.3 µM): 22.8% | viability, T/C (second compound 0.003 µM, first compound 0.000949 µM): 92.7% | viability, T/C (second compound 0.003 µM, first compound 0.003 µM): 82.8% | viability, T/C (second compound 0.003 µM, first compound 0.00949 µM): 37.5% | viability, T/C (second compound 0.003 µM, first compound 0.03 µM): 25.2% | viability, T/C (second compound 0.003 µM, first compound 0.0949 µM): 22.9% | viability, T/C (second compound 0.003 µM, first compound 0.3 µM): 20.3% | viability, T/C (second compound 0.00949 µM, first compound 0.000949 µM): 96.6% | viability, T/C (second compound 0.00949 µM, first compound 0.003 µM): 71.8% | viability, T/C (second compound 0.00949 µM, first compound 0.00949 µM): 37.8% | viability, T/C (second compound 0.00949 µM, first compound 0.03 µM): 23.5% | viability, T/C (second compound 0.00949 µM, first compound 0.0949 µM): 21.9% | viability, T/C (second compound 0.00949 µM, first compound 0.3 µM): 20.6% | viability, T/C (second compound 0.03 µM, first compound 0.000949 µM): 85.2% | viability, T/C (second compound 0.03 µM, first compound 0.003 µM): 73.4% | viability, T/C (second compound 0.03 µM, first compound 0.00949 µM): 35.3% | viability, T/C (second compound 0.03 µM, first compound 0.03 µM): 19.5% | viability, T/C (second compound 0.03 µM, first compound 0.0949 µM): 19.3% | viability, T/C (second compound 0.03 µM, first compound 0.3 µM): 16.3% | viability, T/C (second compound 0.0949 µM, first compound 0.000949 µM): 88.5% | viability, T/C (second compound 0.0949 µM, first compound 0.003 µM): 61.7% | viability, T/C (second compound 0.0949 µM, first compound 0.00949 µM): 26.1% | viability, T/C (second compound 0.0949 µM, first compound 0.03 µM): 19.4% | viability, T/C (second compound 0.0949 µM, first compound 0.0949 µM): 16.6% | viability, T/C (second compound 0.0949 µM, first compound 0.3 µM): 14.8% | viability, T/C (second compound 0.3 µM, first compound 0.000949 µM): 85.2% | viability, T/C (second compound 0.3 µM, first compound 0.003 µM): 61.6% | viability, T/C (second compound 0.3 µM, first compound 0.00949 µM): 23% | viability, T/C (second compound 0.3 µM, first compound 0.03 µM): 18.1% | viability, T/C (second compound 0.3 µM, first compound 0.0949 µM): 15.7% | viability, T/C (second compound 0.3 µM, first compound 0.3 µM): 13.4%

O=C(c1ccc(F)c(F)c1Nc1ccc(I)cc1F)N1CC(O)([C@@H]2CCCCN2)C1 + C#Cc1c(F)ccc2cc(O)cc(-c3ncc4c(N5CC6CCC(C5)N6)nc(OCC56CCCN5CC(F)C6)nc4c3F)c12
IC50 (second compound 0.0316 µM): < 3.16 nM | IC50 (second compound 0.1 µM): < 3.16 nM | IC50 (second compound 0.316 µM): < 3.16 nM | IC50 (second compound 1 µM): < 3.16 nM | IC50 (second compound 3.16 µM): < 3.16 nM | IC50 (second compound 10 µM): < 3.16 nM | viability, T/C (second compound 0.0316 µM, first compound 0.00316 µM): 19.3% | viability, T/C (second compound 0.0316 µM, first compound 0.01 µM): 12% | viability, T/C (second compound 0.0316 µM, first compound 0.0316 µM): 5.6% | viability, T/C (second compound 0.0316 µM, first compound 0.1 µM): 2.35% | viability, T/C (second compound 0.0316 µM, first compound 0.316 µM): 0.7% | viability, T/C (second compound 0.0316 µM, first compound 1 µM): 0.29% | viability, T/C (second compound 0.1 µM, first compound 0.00316 µM): 6.37% | viability, T/C (second compound 0.1 µM, first compound 0.01 µM): 4.57% | viability, T/C (second compound 0.1 µM, first compound 0.0316 µM): 2.3% | viability, T/C (second compound 0.1 µM, first compound 0.1 µM): 1.43% | viability, T/C (second compound 0.1 µM, first compound 0.316 µM): 0.58% | viability, T/C (second compound 0.1 µM, first compound 1 µM): 0.35% | viability, T/C (second compound 0.316 µM, first compound 0.00316 µM): 4.21% | viability, T/C (second compound 0.316 µM, first compound 0.01 µM): 2.12% | viability, T/C (second compound 0.316 µM, first compound 0.0316 µM): 1.39% | viability, T/C (second compound 0.316 µM, first compound 0.1 µM): 0.91% | viability, T/C (second compound 0.316 µM, first compound 0.316 µM): 0.54% | viability, T/C (second compound 0.316 µM, first compound 1 µM): 0.22% | viability, T/C (second compound 1 µM, first compound 0.00316 µM): 1.85% | viability, T/C (second compound 1 µM, first compound 0.01 µM): 1.57% | viability, T/C (second compound 1 µM, first compound 0.0316 µM): 1.12% | viability, T/C (second compound 1 µM, first compound 0.1 µM): 1.04% | viability, T/C (second compound 1 µM, first compound 0.316 µM): 0.42% | viability, T/C (second compound 1 µM, first compound 1 µM): 0.15% | viability, T/C (second compound 3.16 µM, first compound 0.00316 µM): 1.79% | viability, T/C (second compound 3.16 µM, first compound 0.01 µM): 1.3% | viability, T/C (second compound 3.16 µM, first compound 0.0316 µM): 1.31% | viability, T/C (second compound 3.16 µM, first compound 0.1 µM): 0.67% | viability, T/C (second compound 3.16 µM, first compound 0.316 µM): 0.2% | viability, T/C (second compound 3.16 µM, first compound 1 µM): 0.21% | viability, T/C (second compound 10 µM, first compound 0.00316 µM): 1.29% | viability, T/C (second compound 10 µM, first compound 0.01 µM): 0.68% | viability, T/C (second compound 10 µM, first compound 0.0316 µM): 0.68% | viability, T/C (second compound 10 µM, first compound 0.1 µM): 0.65% | viability, T/C (second compound 10 µM, first compound 0.316 µM): 0.38% | viability, T/C (second compound 10 µM, first compound 1 µM): 0.17%
